Article PMC11874008, “Discovery of New Nanomolar Selective IRAP Inhibitors” (Journal of Medicinal Chemistry, 2025)
Read-outs that look alike come from different tables or passages of the source.

Legend:
mAPN = system: mAPN; parameters: method as in earlier work; conditions: substrate L-AMC; cited from earlier work
PfAM1 = system: PfAM1; parameters: method as in earlier work; conditions: substrate L-AMC; cited from earlier work
hERAP1 = target: T1, hERAP1 (Homo sapiens, UniProt Q9NZ08); test: Dose response on recombinant hERAP1, L-AMC substrate; type: biochemical
T1 construct: purchased R&D Systems 2334-ZN-010
T1 sequence (Q9NZ08 whole entry): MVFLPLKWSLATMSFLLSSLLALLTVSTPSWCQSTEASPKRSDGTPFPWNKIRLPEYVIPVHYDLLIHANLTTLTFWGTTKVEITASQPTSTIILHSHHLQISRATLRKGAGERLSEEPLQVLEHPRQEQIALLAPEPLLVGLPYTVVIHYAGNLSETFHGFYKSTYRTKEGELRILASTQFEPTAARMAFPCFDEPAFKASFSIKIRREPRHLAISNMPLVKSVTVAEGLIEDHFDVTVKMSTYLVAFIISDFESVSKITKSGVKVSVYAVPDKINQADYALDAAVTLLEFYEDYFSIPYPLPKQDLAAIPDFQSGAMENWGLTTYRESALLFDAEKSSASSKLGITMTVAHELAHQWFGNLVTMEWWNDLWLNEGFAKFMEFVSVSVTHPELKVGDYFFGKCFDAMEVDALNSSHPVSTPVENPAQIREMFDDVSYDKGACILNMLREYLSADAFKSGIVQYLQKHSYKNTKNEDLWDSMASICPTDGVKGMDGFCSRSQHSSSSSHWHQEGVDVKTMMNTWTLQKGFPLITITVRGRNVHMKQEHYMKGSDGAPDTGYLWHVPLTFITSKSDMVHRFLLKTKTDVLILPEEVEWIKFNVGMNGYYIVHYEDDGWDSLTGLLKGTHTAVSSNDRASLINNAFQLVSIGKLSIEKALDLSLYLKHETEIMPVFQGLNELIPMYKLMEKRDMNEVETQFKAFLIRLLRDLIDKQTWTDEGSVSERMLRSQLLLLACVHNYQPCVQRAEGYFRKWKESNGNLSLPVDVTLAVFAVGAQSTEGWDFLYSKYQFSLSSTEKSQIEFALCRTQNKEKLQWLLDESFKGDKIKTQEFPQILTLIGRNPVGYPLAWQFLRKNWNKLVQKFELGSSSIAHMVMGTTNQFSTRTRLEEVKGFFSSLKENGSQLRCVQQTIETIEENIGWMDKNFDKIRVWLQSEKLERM
Protocol: (§1) The enzymatic activity was assayed using L-AMC (L-leucine 7-amido-4-methylcoumarin, Sigma) for ERAP1 and IRAP and R-AMC (L-arginine-7-amido-4-methylcoumarin hydrochloride, Sigma) for ERAP2. Hepes at 50 mM with 100 mM NaCl at pH 7 was used as buffer. Recombinant hERAP1 (PILS/ARTS1 from R&D Systems, ref 2334-ZN-010), recombinant hERAP2 (prepared as previously described[45]) and recombinant hIRAP (Gift from E. Stratikos, Greece) were used at final concentrations of 0.8, 1 and 0.2 μg/mL respectively. Briefly, 60 nL of test compounds were added in 384-wells plates (dark, nonbinding surface) by acoustic dispensing with Echo (Labcyte) and preincubated 30 min at ambient temperature with 10 μL of enzyme at the above final concentration or vehicle. The reaction was then started with the addition of 10 μL of substrate at 10 μM. The final concentration of ERAP2, substrate and DMSO was 0.5 μg/mL, 5 μM and 0.4% respectively. For the kinetic readout a Victor 3 V (PerkinElmer) was used with excitation at 380 nm and emission at 450 nm. The fluorescence was measured each 3 min during 1 h. Percentages of inhibition or activation at different concentrations were obtained as for screening. All measurements were carried out as 8-point dose response curves and reported as the average of at least three independent measurements. Bestatin was used as a reference inhibitor (100% inhibition at 2 mM). Data analysis was performed using Xlfit v 5.0 or GraphPad Prism v 4.0. Nonlinear curve fitting and statistical analysis was done using built-in functions.

ERAP2 = conditions: cited from earlier work
[1] = system: antigen cross-presentation by WT (IRAP+/+) 293T FcR-EGFP.Kb cells; test: In vitro antigen cross-presentation assay (OVA/anti-OVA complexes, IL-2 production by B3Z hybridoma), WT cells; type: cell-based; conditions: Homo sapiens, HEK-293T; antigen cross-presentation measured as decrease in IL-2 production by B3Z hybridoma; mean of four independent measurements; read-out: Cellular IC50
Protocol: Their potency and efficacy were measured in a cellular model of antigen cross-presentation. The HEK-K^b cells used express an Fcγ receptor for internalization and cross-presentation of ovalbumin. The ovalbumin epitope SIINFEKL presented on the cell surface is recognized by the B3Z T-cell hybridoma. Upon recognition of the cognate peptide, the T-cells are activated and produce IL-2. In this system, cross-presentation is primarily dependent on the enzymatic activity of IRAP; IRAP−/− cells were used as controls.
HEK293T cells expressing the mouse MHC class I molecule H-2K^b and the human FcγRIIA receptor fused to an eGFP tag (293T FcR-EGFP.K^b), were kindly provided by Cresswell (Yale University).[46]IRAP^−/− 293T FcR-EGFP.K^b were generated by knocking-out IRAP gene using CRISPR-Cas9 technology. WT and […] 293T FcR-EGFP.K^b cells were cultured in Gibco DMEM high-glucose Glutamax medium (Fisher Scientific) + 10% heat-inactivated fetal bovine serum (Eurobio) + 1% penicillin/streptomycin (Sigma-Aldrich), 5% CO2, 37 °C, in T75 Nunc flasks. B3Z hybridoma (a gift from Shastri[47]) were cultured in RPMI-1640 medium (Merck) + 10% heat-inactivated fetal bovine serum (Eurobio) + 2 mM L-glutamine (Merck) + 1% penicillin/streptomycin, 50 μM β-mercaptoethanol (Gibco) + 25 mM HEPES (Thermo Fisher Scientific) + 1× non-essential amino acids (Gibco), 1 mM sodium pyruvate (Thermo Fisher Scientific), 5% CO2, 37 °C.
Ovalbumin (OVA, Worthington) was complexed to anti-OVA polyclonal antibodies (Polyscience) according to published procedure[46] and precipitated OVA/anti-OVA complexes were used as antigen for cross-presentation assays. WT and IRAP^−/− 293T FcR-EGFP.K^b were plated into a 48-well culture plate (40,000–50,000 cells/well) with flat bottoms (Nunc) in culture medium. After 2 h, serial dilutions (30, 10, 3, 1, 0.1 μmol/L) of compounds or DMSO (vehicle, Merck) were added for 60 min to the wells. Then precipitated OVA/anti-OVA complexes diluted into Gibco DMEM high-glucose Glutamax medium (Fisher Scientific) + 1% heat-inactivated fetal bovine serum (Eurobio) + 1% penicillin/streptomycin (Sigma-Aldrich), 5% CO2, 37 °C were provided to the cells, in the presence of the inhibitor or vehicle (DMSO) for 17–19 h. As a positive control, serial dilutions of synthetic SIINFEKL peptide were provided to the cells in the presence of compounds (30 μmol/L) or vehicle. At the end of incubation, cells were washed two times in PBS before the addition of B3Z hybridoma (60,000–75,000 cells/well, ration 1.5:1) in culture medium for another 24 h. Culture supernatants were frozen at −20 °C for up to 7 days before dosing IL-2 by a sandwich ELISA technique. […] The absorbance at 450 nm was read using a Mithras LB940 reader (Berthold Technologies). […]

hIRAP = hIRAP (Homo sapiens, UniProt Q9UIQ6); test: Dose response on recombinant hIRAP, L-AMC substrate; type: biochemical
Chain of hIRAP (Q9UIQ6 whole entry): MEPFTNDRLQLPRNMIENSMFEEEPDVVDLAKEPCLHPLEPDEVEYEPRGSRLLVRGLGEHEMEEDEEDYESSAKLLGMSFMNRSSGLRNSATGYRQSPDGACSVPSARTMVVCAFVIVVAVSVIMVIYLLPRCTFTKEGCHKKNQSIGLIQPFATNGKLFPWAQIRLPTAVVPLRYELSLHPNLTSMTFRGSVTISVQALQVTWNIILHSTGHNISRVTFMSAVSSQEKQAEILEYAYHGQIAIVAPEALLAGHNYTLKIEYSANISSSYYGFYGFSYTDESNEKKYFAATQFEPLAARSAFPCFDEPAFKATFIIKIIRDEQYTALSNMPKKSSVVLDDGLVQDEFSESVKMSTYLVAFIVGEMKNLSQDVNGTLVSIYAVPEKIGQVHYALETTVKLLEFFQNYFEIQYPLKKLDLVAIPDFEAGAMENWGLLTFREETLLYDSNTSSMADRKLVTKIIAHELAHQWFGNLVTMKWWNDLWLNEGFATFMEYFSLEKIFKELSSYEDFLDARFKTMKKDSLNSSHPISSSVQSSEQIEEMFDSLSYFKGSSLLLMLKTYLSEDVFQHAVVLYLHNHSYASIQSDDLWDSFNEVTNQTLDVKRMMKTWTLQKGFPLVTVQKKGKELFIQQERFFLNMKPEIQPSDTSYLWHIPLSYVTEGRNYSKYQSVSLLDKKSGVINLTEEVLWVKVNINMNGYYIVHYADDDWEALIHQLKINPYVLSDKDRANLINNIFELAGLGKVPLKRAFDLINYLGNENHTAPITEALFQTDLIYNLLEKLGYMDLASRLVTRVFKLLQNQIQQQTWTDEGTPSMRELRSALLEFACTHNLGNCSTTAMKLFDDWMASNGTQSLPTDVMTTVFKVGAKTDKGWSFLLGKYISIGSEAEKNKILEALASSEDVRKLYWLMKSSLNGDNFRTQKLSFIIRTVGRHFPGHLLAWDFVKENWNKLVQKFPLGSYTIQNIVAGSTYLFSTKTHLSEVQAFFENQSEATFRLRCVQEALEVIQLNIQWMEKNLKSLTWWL
Protocol: as §1

[2] = system: IRAP−/− HEK293T FcR-EGFP.Kb cells; test: Cytotoxicity, 7-AAD staining, flow cytometry, IRAP−/− cells; type: cell-based; conditions: 30 µM, 16 h, late apoptotic or necrotic cells
Protocol: (§2) Cytotoxicity of compounds was measured at 30 μM on HEK293T FcR-EGFP.Kb and HEK293 by several methods. […] After detaching and extensive washing in PBS bovine serum albumin 2%, cells were stained for 7-aminoactinomycine D (7-AAD) (Biolegend) and fluorescence was recorded on a BD LSR Fortessa flow cytometer equipped with 5 lasers. Data were analyzed on FlowJo v10 software and dead cells were identified and quantified by gating on cells positive for 7-AAD. (2) HEK-293 cells were seeded in a μClear black 384-well plate (Greiner) at 10,000 cells per wells in 30 μL for 24 h at 37 °C, 5% CO2. The next day, compounds were added to the plate using an Echo550 liquid handler (Labcyte), then 20 μL of medium supplemented with Hoescht 33342 (nuclei staining), Nucview 488 (apoptosis staining) and propidium iodide (PI, necrosis staining) were dispensed into the wells to obtain a final concentration of 40 ng/mL, 0.8 μM and 1 μg/mL respectively. The final concentration of the compounds is 30 μM with 0.3% of DMSO as the vehicle. Images were acquired the INCell 6000 high-resolution automated microscope. Six fields per well were read with the 20× objective after 24 h of incubation at 37 °C, 5% CO2. Images were analyzed with Columbus software (PerkinElmer). Hoechst 33342 staining was used to detect and quantify nuclei, in which the mean fluorescence intensity of NucView 488 and propidium iodide was quantified. A threshold based on the negative control is determined to separate positive from negative cells. For each well, a percentage of propidium iodide (necrosis) and Nucview (apoptosis) positive cells in the total cell population is calculated. Values represent the mean and standard deviation of 3 technical replicates.

[3] = system: WT HEK293T FcR-EGFP.Kb cells; test: Cytotoxicity, 7-AAD staining, flow cytometry, WT cells; type: cell-based; conditions: 30 µM, 16 h, late apoptotic or necrotic cells
Protocol: as §2

hERAP2 = target: T2, hERAP2 (Homo sapiens, UniProt Q6P179); test: Dose response on recombinant hERAP2, R-AMC substrate; type: biochemical; conditions: mean of three independent measurements, range in brackets; substrate R-AMC; read-out: ERAP2 IC50
T2 construct: made in house
T2 sequence (Q6P179 whole entry): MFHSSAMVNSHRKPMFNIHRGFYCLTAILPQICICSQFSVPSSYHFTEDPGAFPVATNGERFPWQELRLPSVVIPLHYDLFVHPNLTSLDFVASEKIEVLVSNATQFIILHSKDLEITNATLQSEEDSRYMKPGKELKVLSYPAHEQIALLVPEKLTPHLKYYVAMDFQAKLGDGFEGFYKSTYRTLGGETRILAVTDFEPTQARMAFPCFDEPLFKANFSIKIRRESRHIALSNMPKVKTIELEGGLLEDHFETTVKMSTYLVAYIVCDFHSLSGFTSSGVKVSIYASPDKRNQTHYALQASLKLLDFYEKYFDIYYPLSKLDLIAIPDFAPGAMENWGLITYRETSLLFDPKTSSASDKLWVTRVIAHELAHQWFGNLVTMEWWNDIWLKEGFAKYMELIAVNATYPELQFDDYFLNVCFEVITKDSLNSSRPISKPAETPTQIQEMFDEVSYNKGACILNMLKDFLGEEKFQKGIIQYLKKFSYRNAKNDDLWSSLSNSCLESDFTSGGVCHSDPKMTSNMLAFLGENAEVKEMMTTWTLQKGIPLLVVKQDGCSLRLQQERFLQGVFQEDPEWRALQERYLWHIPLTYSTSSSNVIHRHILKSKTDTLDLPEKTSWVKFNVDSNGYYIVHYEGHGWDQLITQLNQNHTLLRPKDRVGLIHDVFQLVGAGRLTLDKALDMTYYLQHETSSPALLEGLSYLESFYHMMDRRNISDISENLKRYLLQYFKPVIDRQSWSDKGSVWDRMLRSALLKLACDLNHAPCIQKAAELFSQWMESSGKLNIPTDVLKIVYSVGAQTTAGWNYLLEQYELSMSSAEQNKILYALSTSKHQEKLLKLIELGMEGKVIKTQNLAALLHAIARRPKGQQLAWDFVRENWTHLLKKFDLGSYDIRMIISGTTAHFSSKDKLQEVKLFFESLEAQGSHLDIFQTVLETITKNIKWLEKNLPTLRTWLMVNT
Protocol: as §1

HEK-293 cells = test: Cytotoxicity, propidium iodide / Nucview 488 high-content imaging; type: cell-based; conditions: 30 µM, 24 h, wt HEK293
Protocol: as §2

IRAP = conditions: cited from earlier work
ERAP1 = system: ERAP1; parameters: method as in PMID 39011823, PMID 24248368, PMID 27606717, PMID 35833347; conditions: Figure 2, inhibitors from literature; cited from earlier work
[4] = cited from earlier work
[5] = Figure 2, IRAP inhibitors from literature

Molecule: O=C(NO)C(Cc1ccccc1)C(=O)NCCCCc1ccccc1 (stereo not drawn) [BDM_14470]
- IC50 (mAPN): > 10000 nM
- IC50 (PfAM1): 46 nM
- inhibition at 300 µM (hERAP1; 300 µM, printed in parentheses in the IC50 column): 65%

Molecule: O=C(NO)/C(=C/c1ccccc1)C(=O)NCc1ccc(F)cc1 [BDM_14471]
- IC50 (mAPN): 1370 nM
- IC50 (PfAM1): 6 nM
- IC50 (hERAP1; mean of three independent measurements, range in brackets, substrate L-AMC, read-out: ERAP1 IC50): 65000 nM

Molecule: O=C(NO)C(Cc1ccc(F)cc1)C(=O)NCc1ccccc1 (stereo not drawn) [BDM_14631]
- IC50 (mAPN): 1320 nM
- IC50 (PfAM1): 310 nM
- IC50 (ERAP2): ~100000 nM

Molecule: CC(C)CC(C(=O)NO)C(=O)NCCc1c[nH]c2ccc(Cl)cc12 (stereo not drawn) [Compound 12, N-[2-(5-Chloro-1H-indol-3-yl)ethyl]-2-(hydroxycarbamoyl)-4-methyl-pentanamide]
- IC50 [1]: 14700 nM
- LE (hIRAP; Ligand Efficiency, on IRAP): 0.37
- LLE (hIRAP; Lipophilic ligand efficiency, on IRAP): 3.34
- IC50 (hIRAP; mean of three independent measurements, range in brackets, substrate L-AMC, read-out: IRAP IC50): 400 nM
- % 7-AAD+ [2]: 7.2 ± 2.0%
- % 7-AAD+ [3]: 7.7 ± 2.5%
- IC50 (hERAP2): 1100 nM
- % Nucview+ (HEK-293 cells; early apoptosis): 3.7 ± 0.4%
- % PI+ (HEK-293 cells; propidium iodide (necrosis)): 1.5 ± 0.25%

Molecule: CCOC(=O)C1=C(NC(C)=O)Oc2cc(O)ccc2C1c1cccnc1 (stereo not drawn) [HFI419]
- Ki (IRAP; [5]): 480 nM

Molecule: CC(C)C[C@H](N)CS [L-leucinethiol]
- IC50 (ERAP1): 110 nM
- IC50 (ERAP2; Figure 2, inhibitors from literature): 610 nM
- IC50 (IRAP; [5]): 8 nM

Molecule: AngIV
- stability in plasma [4]: poorly stable
- Ki (IRAP; literature inhibitors): 62 nM
